Measured values published in US11377442B2, “Small molecule agonists and antagonists of NR2F6 activity” (ZANDER THERAPEUTICS, INC., priority 2016, dated 2022).
Like-named read-outs stand apart in the source and are kept apart here. Values belong to the compound of their own block, whether it stands above or below them.

Experiments:
Format in all cases: cell-based
[1] = system: Renilla; experiment: Renilla signal in NR2F6 agonist screening, cmpd/DMSO; details: Renilla, F4
[2] = target: T1, NR2F6 LBD (Homo sapiens, UniProt P10588); experiment: NR2F6 LBD transient transfection; details: LBD
T1 construct: expressed in transfected cells
T1 sequence (P10588 165-393 limits assumed): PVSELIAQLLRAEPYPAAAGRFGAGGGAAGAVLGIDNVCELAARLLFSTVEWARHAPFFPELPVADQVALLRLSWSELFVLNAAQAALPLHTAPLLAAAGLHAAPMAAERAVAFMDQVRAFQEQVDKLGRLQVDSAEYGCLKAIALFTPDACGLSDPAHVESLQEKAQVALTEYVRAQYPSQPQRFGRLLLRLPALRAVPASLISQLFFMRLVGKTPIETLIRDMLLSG
In short: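 LBD-transfected cells treated at 40, 10, 2 and 0.5 μM (4 replicates); cytotoxicity measured in parallel, normalized to DMSO (0%) and zero signal (100%). Higher concentrations excluded where signal loss reflected toxicity.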

[3] = target: T2, NR2F6 (Homo sapiens, UniProt P10588); experiment: NR2F6 agonist screening, Firefly signal cmpd/DMSO
T2 construct: expressed in transfected cells; also transient transfection
T2 sequence (P10588 1-404): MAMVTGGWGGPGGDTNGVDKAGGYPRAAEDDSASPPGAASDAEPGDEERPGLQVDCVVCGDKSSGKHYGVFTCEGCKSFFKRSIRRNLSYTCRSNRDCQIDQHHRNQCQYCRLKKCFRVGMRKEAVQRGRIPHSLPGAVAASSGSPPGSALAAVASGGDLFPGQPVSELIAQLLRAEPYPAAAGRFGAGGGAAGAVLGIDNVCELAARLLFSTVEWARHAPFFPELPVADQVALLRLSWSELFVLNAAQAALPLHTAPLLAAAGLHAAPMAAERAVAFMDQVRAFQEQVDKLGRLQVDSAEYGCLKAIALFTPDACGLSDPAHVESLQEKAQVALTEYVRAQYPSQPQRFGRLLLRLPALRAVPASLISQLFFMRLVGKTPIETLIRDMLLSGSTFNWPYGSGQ

[4] = system: HEK293 pGL4; experiment: Firefly_pGL signal, cmpd/DMSO (pGL4 control cells); details: Homo sapiens
[5] = read-out: Renilla, F4, cmpd/DMSO (mean)
[6] = 1% FBS, read-out: Renilla, F4, 1% FBS, cmpd/DMSO (mean)
[7] = 10% FBS, read-out: Renilla, F4, 10% FBS, cmpd/DMSO (mean)
[8] = HEK293, 0.5 uM, pGL4, read-out: Firefly pGL4, cmpd/DMSO (mean)
[9] = HEK293, 2 uM, pGL4, read-out: Firefly pGL4, cmpd/DMSO (mean)
[10] = HEK293, 10 uM, pGL4, read-out: Firefly pGL4, cmpd/DMSO (mean)
[11] = HEK293, 40 uM, pGL4, read-out: Firefly pGL4, cmpd/DMSO (mean)
[12] = HEK293, pGL4, 1% FBS, 0.5 uM, read-out: Firefly, pGL4, 1% FBS, cmpd/DMSO (mean)
[13] = HEK293, pGL4, 1% FBS, 2 uM, read-out: Firefly, pGL4, 1% FBS, cmpd/DMSO (mean)
[14] = HEK293, pGL4, 1% FBS, 10 uM, read-out: Firefly, pGL4, 1% FBS, cmpd/DMSO (mean)
[15] = HEK293, pGL4, 1% FBS, 40 uM, read-out: Firefly, pGL4, 1% FBS, cmpd/DMSO (mean)
[16] = HEK293, pGL4, 10% FBS, 0.5 uM, read-out: Firefly, pGL4, 10% FBS, cmpd/DMSO (mean)
[17] = HEK293, pGL4, 10% FBS, 2 uM, read-out: Firefly, pGL4, 10% FBS, cmpd/DMSO (mean)
[18] = HEK293, pGL4, 10% FBS, 10 uM, read-out: Firefly, pGL4, 10% FBS, cmpd/DMSO (mean)
[19] = HEK293, pGL4, 10% FBS, 40 uM, read-out: Firefly, pGL4, 10% FBS, cmpd/DMSO (mean)

Firefly LBD, cmpd/DMSO (mean) ([2]; 0.5 uM): 1.1 | Firefly LBD, cmpd/DMSO (mean) ([2]; 2 uM): 1.4 | Firefly LBD, cmpd/DMSO (mean) ([2]; 10 uM): 1.6 | Firefly LBD, cmpd/DMSO (mean) ([2]; 40 uM): 1.9 | Firefly F4, cmpd/DMSO (mean) ([3]; 0.5 uM): 1.1 | Firefly F4, cmpd/DMSO (mean) ([3]; 2 uM): 1.1 | Firefly F4, cmpd/DMSO (mean) ([3]; 10 uM): 2.0 | Firefly F4, cmpd/DMSO (mean) ([3]; 40 uM): 2.7 | F4, Firefly/Renilla for S/B(F4) > 3 ([3]; 10% FBS, 40 uM): 2.0 | Firefly, F4/pGL4 for S/B(F4) > 3 ([3]; 10% FBS, 40 uM): 2.7 | Firefly, F4, 1% FBS, cmpd/DMSO (mean) ([3]; 1% FBS, 0.5 uM): 1.0 | Firefly, F4, 1% FBS, cmpd/DMSO (mean) ([3]; 1% FBS, 2 uM): 1.1 | Firefly, F4, 1% FBS, cmpd/DMSO (mean) ([3]; 1% FBS, 10 uM): 1.6 | Firefly, F4, 1% FBS, cmpd/DMSO (mean) ([3]; 1% FBS, 40 uM): 2.1 | Firefly, F4, 10% FBS, cmpd/DMSO (mean) ([3]; 10% FBS, 0.5 uM): 1.6 | Firefly, F4, 10% FBS, cmpd/DMSO (mean) ([3]; 10% FBS, 2 uM): 1.6 | Firefly, F4, 10% FBS, cmpd/DMSO (mean) ([3]; 10% FBS, 10 uM): 1.1 | Firefly, F4, 10% FBS, cmpd/DMSO (mean) ([3]; 10% FBS, 40 uM): 3.6
Compound: O=S1(=O)C[C@H](NC2CCCCC2)[C@@H](S(=O)(=O)c2ccccc2)C1 [Compound D111]
fold induction at 0.5 µM [1, 5]: 1 | fold induction at 2 µM [1, 5]: 1 | fold induction at 10 µM [1, 5]: 1.1 | fold induction at 40 µM [1, 5]: 1.4 | fold induction at 0.5 µM [1, 6]: 1.1 | fold induction at 2 µM [1, 6]: 1.1 | fold induction at 10 µM [1, 6]: 1.3 | fold induction at 40 µM [1, 6]: 1.7 | fold induction at 0.5 µM [1, 7]: 1.1 | fold induction at 2 µM [1, 7]: 1.1 | fold induction at 10 µM [1, 7]: 1.2 | fold induction at 40 µM [1, 7]: 1.8 | fold induction at 0.5 µM [4, 8]: 0.9 | fold induction at 2 µM [4, 9]: 1.4 | fold induction at 10 µM [4, 10]: 1.5 | fold induction at 40 µM [4, 11]: 1.8 | fold induction at 0.5 µM [4, 12]: 1 | fold induction at 2 µM [4, 13]: 1.2 | fold induction at 10 µM [4, 14]: 1.2 | fold induction at 40 µM [4, 15]: 1.2 | fold induction at 0.5 µM [4, 16]: 1.2 | fold induction at 2 µM [4, 17]: 1.2 | fold induction at 10 µM [4, 18]: 1.3 | fold induction at 40 µM [4, 19]: 1.3

Firefly LBD, cmpd/DMSO (mean) ([2]; 0.5 uM): 1.1 | Firefly LBD, cmpd/DMSO (mean) ([2]; 2 uM): 1.4 | Firefly LBD, cmpd/DMSO (mean) ([2]; 10 uM): 3.0 | Firefly LBD, cmpd/DMSO (mean) ([2]; 40 uM): 0.8 | Firefly F4, cmpd/DMSO (mean) ([3]; 0.5 uM): 1.7 | Firefly F4, cmpd/DMSO (mean) ([3]; 2 uM): 1.9 | Firefly F4, cmpd/DMSO (mean) ([3]; 10 uM): 3.5 | Firefly F4, cmpd/DMSO (mean) ([3]; 40 uM): 1.4 | F4, Firefly/Renilla for S/B(F4) > 3 ([3]; 1% FBS, 10 uM): 2.5 | Firefly, F4/pGL4 for S/B(F4) > 3 ([3]; 1% FBS, 10 uM): 2.3 | F4, Firefly/Renilla for S/B(F4) > 3 ([3]; 10% FBS, 40 uM): 2.5 | Firefly, F4/pGL4 for S/B(F4) > 3 ([3]; 10% FBS, 40 uM): 2.3 | Firefly, F4, 1% FBS, cmpd/DMSO (mean) ([3]; 1% FBS, 0.5 uM): 0.8 | Firefly, F4, 1% FBS, cmpd/DMSO (mean) ([3]; 1% FBS, 2 uM): 1.4 | Firefly, F4, 1% FBS, cmpd/DMSO (mean) ([3]; 1% FBS, 10 uM): 3.8 | Firefly, F4, 1% FBS, cmpd/DMSO (mean) ([3]; 1% FBS, 40 uM): 0.8 | Firefly, F4, 10% FBS, cmpd/DMSO (mean) ([3]; 10% FBS, 0.5 uM): 1.3 | Firefly, F4, 10% FBS, cmpd/DMSO (mean) ([3]; 10% FBS, 2 uM): 1.0 | Firefly, F4, 10% FBS, cmpd/DMSO (mean) ([3]; 10% FBS, 10 uM): 2.4 | Firefly, F4, 10% FBS, cmpd/DMSO (mean) ([3]; 10% FBS, 40 uM): 5.9
Compound: CC(C)CCN[C@H]1CS(=O)(=O)C[C@@H]1S(=O)(=O)c1cccs1 [Compound D110]
fold induction at 0.5 µM [1, 5]: 1.1 | fold induction at 2 µM [1, 5]: 1.1 | fold induction at 10 µM [1, 5]: 1.3 | fold induction at 40 µM [1, 5]: 1.4 | fold induction at 0.5 µM [1, 6]: 1 | fold induction at 2 µM [1, 6]: 1.1 | fold induction at 10 µM [1, 6]: 1.5 | fold induction at 40 µM [1, 6]: 1.5 | fold induction at 0.5 µM [1, 7]: 1 | fold induction at 2 µM [1, 7]: 1 | fold induction at 10 µM [1, 7]: 1.5 | fold induction at 40 µM [1, 7]: 2.4 | fold induction at 0.5 µM [4, 8]: 1.2 | fold induction at 2 µM [4, 9]: 1.4 | fold induction at 10 µM [4, 10]: 3.3 | fold induction at 40 µM [4, 11]: 0.7 | fold induction at 0.5 µM [4, 12]: 1 | fold induction at 2 µM [4, 13]: 1.2 | fold induction at 10 µM [4, 14]: 1.7 | fold induction at 40 µM [4, 15]: 0.8 | fold induction at 0.5 µM [4, 16]: 1.2 | fold induction at 2 µM [4, 17]: 1.2 | fold induction at 10 µM [4, 18]: 1.8 | fold induction at 40 µM [4, 19]: 2.6

Firefly LBD, cmpd/DMSO (mean) ([2]; 0.5 uM): 0.9 | Firefly LBD, cmpd/DMSO (mean) ([2]; 2 uM): 1.1 | Firefly LBD, cmpd/DMSO (mean) ([2]; 10 uM): 2.2 | Firefly LBD, cmpd/DMSO (mean) ([2]; 40 uM): 2.2 | Firefly F4, cmpd/DMSO (mean) ([3]; 0.5 uM): 1.3 | Firefly F4, cmpd/DMSO (mean) ([3]; 2 uM): 1.6 | Firefly F4, cmpd/DMSO (mean) ([3]; 10 uM): 2.2 | Firefly F4, cmpd/DMSO (mean) ([3]; 40 uM): 4.0 | F4, Firefly/Renilla for S/B(F4) > 3 ([3]; 1% FBS, 40 uM): 2.2 | Firefly, F4/pGL4 for S/B(F4) > 3 ([3]; 1% FBS, 40 uM): 2.6 | F4, Firefly/Renilla for S/B(F4) > 3 ([3]; 10% FBS, 40 uM): 2.9 | Firefly, F4/pGL4 for S/B(F4) > 3 ([3]; 10% FBS, 40 uM): 2.7 | Firefly, F4, 1% FBS, cmpd/DMSO (mean) ([3]; 1% FBS, 0.5 uM): 1.5 | Firefly, F4, 1% FBS, cmpd/DMSO (mean) ([3]; 1% FBS, 2 uM): 0.8 | Firefly, F4, 1% FBS, cmpd/DMSO (mean) ([3]; 1% FBS, 10 uM): 1.4 | Firefly, F4, 1% FBS, cmpd/DMSO (mean) ([3]; 1% FBS, 40 uM): 3.8 | Firefly, F4, 10% FBS, cmpd/DMSO (mean) ([3]; 10% FBS, 0.5 uM): 0.8 | Firefly, F4, 10% FBS, cmpd/DMSO (mean) ([3]; 10% FBS, 2 uM): 1.4 | Firefly, F4, 10% FBS, cmpd/DMSO (mean) ([3]; 10% FBS, 10 uM): 1.5 | Firefly, F4, 10% FBS, cmpd/DMSO (mean) ([3]; 10% FBS, 40 uM): 6.1
Compound: COCCN[C@H]1CS(=O)(=O)C[C@@H]1S(=O)(=O)c1cccs1 [Compound D107]
fold induction at 0.5 µM [1, 5]: 1.1 | fold induction at 2 µM [1, 5]: 1 | fold induction at 10 µM [1, 5]: 1.2 | fold induction at 40 µM [1, 5]: 1.5 | fold induction at 0.5 µM [1, 6]: 0.9 | fold induction at 2 µM [1, 6]: 1.2 | fold induction at 10 µM [1, 6]: 1.3 | fold induction at 40 µM [1, 6]: 1.8 | fold induction at 0.5 µM [1, 7]: 1 | fold induction at 2 µM [1, 7]: 1 | fold induction at 10 µM [1, 7]: 1.3 | fold induction at 40 µM [1, 7]: 2.1 | fold induction at 0.5 µM [4, 8]: 1.2 | fold induction at 2 µM [4, 9]: 1.5 | fold induction at 10 µM [4, 10]: 2 | fold induction at 40 µM [4, 11]: 2.5 | fold induction at 0.5 µM [4, 12]: 1.3 | fold induction at 2 µM [4, 13]: 1.4 | fold induction at 10 µM [4, 14]: 1.8 | fold induction at 40 µM [4, 15]: 1.4 | fold induction at 0.5 µM [4, 16]: 1.1 | fold induction at 2 µM [4, 17]: 1.3 | fold induction at 10 µM [4, 18]: 1.7 | fold induction at 40 µM [4, 19]: 2.3
